Marks after values point to notes of the source that are not given here.
System: platelets

## Peptide LEDGPKFL + Zinc [IMMP]
Normal animals
  Increase in blood platelets: ~100%
Normal rats
  Platelets: 1560 ± 248* 10^3/μL

From patent US20150132328A1 (priority 2011, published 2015)
